Test systems include OVCAR-5 ovarian; K-562 leukemia; LOX IMVI melanoma; ACHN renal; CCRF-CEM leukemia; NCI/ADR-RES ovarian; T-47D breast; SNB-19 CNS; SR leukemia; CAKI-1 renal.
Common to all, as to test: NCI anticancer screen, dose series, 48 h

The structures appear in SMILES notation.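 A five-concentration, 48-hour dose response in 96-well plates underlies each endpoint, interpolated linearly between surrounding concentrations. GI50 is the concentration that inhibits growth by half. TGI is the concentration that stops growth completely.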 Where only a bound is given, the exact number is not on record here.

The source of these data is PubChem BioAssay (NCI).

In the case of `CCS(=O)(=O)Nc1ccc(Oc2ccc(F)cc2F)c(-c2cn(C)c(=O)c3[nH]ccc23)c1`, the GI50 was 1.29 µM in the test on OVCAR-5 ovarian; 0.0322 µM with K-562 leukemia; 0.0124 µM in the test with LOX IMVI melanoma; 0.153 µM in the test on ACHN renal; 0.162 µM in the test on CCRF-CEM leukemia; 0.561 µM in the test with NCI/ADR-RES ovarian. For the same compound, the GI50 in the test with T-47D breast is 0.0253 µM; in the test with SNB-19 CNS, 0.31 µM; with SR leukemia it was 0.0444 µM. Also, the TGI was 34.7 µM in the test with OVCAR-5 ovarian; > 62.6 µM with K-562 leukemia; 0.905 µM with LOX IMVI melanoma; 27.2 µM in the test with ACHN renal; > 60 µM with CCRF-CEM leukemia; 39.4 µM in the test with NCI/ADR-RES ovarian. The values for the TGI in the test on T-47D breast, in the test with SNB-19 CNS and in the test on SR leukemia were 30.1 µM, 30.9 µM and 30.7 µM, respectively.

`CCCCCCCCCCCCOC1C(C(COC2OC(C(O)CO)C3OC(C)(C)OC23)OC(=O)Nc2ccc([N+](=O)[O-])cc2)OC2OC(C)(C)OC21` (centres undefined): the GI50 is 5.41 µM in the test with OVCAR-5 ovarian; 3.87 µM in the test with K-562 leukemia; 2 µM in the test with LOX IMVI melanoma; 2.55 µM in the test on CAKI-1 renal; 3.4 µM in the test on ACHN renal; 12.3 µM with NCI/ADR-RES ovarian. In addition, the GI50 with T-47D breast is 4.71 µM; in the test with SNB-19 CNS it was 9.43 µM. Moreover, the TGI was determined as 19.1 µM in the test on OVCAR-5 ovarian; 16.8 µM in the test on K-562 leukemia; 3.79 µM in the test on LOX IMVI melanoma; 7.28 µM in the test on CAKI-1 renal; 10.6 µM in the test on ACHN renal; 26.5 µM with NCI/ADR-RES ovarian. For the same compound, the TGI came out at 16.9 µM in the test with T-47D breast and 21.8 µM in the test on SNB-19 CNS.

In the case of `Cc1ccc(S(=O)(=O)NC(CCCCN)C(=O)CCl)cc1` (centres undefined), the GI50 was > 100 µM with OVCAR-5 ovarian; 38.7 µM in the test with K-562 leukemia; 45.4 µM in the test on LOX IMVI melanoma; 37.8 µM with CAKI-1 renal; 92.7 µM in the test on ACHN renal; 81.3 µM in the test with NCI/ADR-RES ovarian. The GI50 is > 100 µM with T-47D breast and 47.8 µM with SNB-19 CNS. Further, the TGI in the test with OVCAR-5 ovarian, in the test on K-562 leukemia, in the test on LOX IMVI melanoma, in the test with CAKI-1 renal, in the test on ACHN renal and in the test on NCI/ADR-RES ovarian was > 100 µM throughout. In addition, the TGI with T-47D breast and with SNB-19 CNS was > 100 µM in each case.

Consider `N#Cc1c(-c2ccc(Cl)cc2)n([O-])c2ccccc2[n+]1=O`, for which the GI50 with OVCAR-5 ovarian was 16.7 µM; in the test on K-562 leukemia it was 2 µM; in the test on LOX IMVI melanoma, 5.72 µM; in the test on ACHN renal, 4.2 µM; with CCRF-CEM leukemia, 2.63 µM; in the test on NCI/ADR-RES ovarian it was 4.05 µM. Moreover, the GI50 is 6.47 µM in the test with T-47D breast and 20.6 µM in the test on SNB-19 CNS. Besides, the TGI with OVCAR-5 ovarian amounted to 30.6 µM; in the test with K-562 leukemia it was 4.01 µM; with LOX IMVI melanoma, 20.3 µM; in the test with ACHN renal, 16.8 µM; in the test on CCRF-CEM leukemia it was 8.2 µM; in the test on NCI/ADR-RES ovarian, 16.1 µM. The TGI in the test with T-47D breast turned out to be 25.8 µM; with SNB-19 CNS, 48.6 µM.

With `Cc1cc(N2CCOCC2)nc(N(CCNc2ccnc3cc(Cl)ccc23)Cc2cccs2)n1`, the GI50 in the test on OVCAR-5 ovarian was 2.19 µM; with K-562 leukemia it was 1.67 µM; in the test with LOX IMVI melanoma, 1.72 µM; in the test on ACHN renal, 1.91 µM; in the test with CCRF-CEM leukemia, 2.02 µM; in the test on NCI/ADR-RES ovarian it was 3.45 µM. In addition, the GI50 was 1.84 µM in the test on T-47D breast, 4.24 µM with SNB-19 CNS and 1.47 µM in the test with SR leukemia. Moreover, the TGI is 4.73 µM in the test with OVCAR-5 ovarian; 3.98 µM in the test with K-562 leukemia; 3.18 µM in the test on LOX IMVI melanoma; 3.79 µM in the test on ACHN renal; 6.1 µM in the test on CCRF-CEM leukemia; > 100 µM in the test on NCI/ADR-RES ovarian. The figures for the TGI with T-47D breast, in the test on SNB-19 CNS and with SR leukemia were 4.4 µM, 76.2 µM and 3.94 µM, respectively.

With `COc1ccc(/C=C2\CN(Cc3cn(CCCNc4ccnc5cc(Cl)ccc45)nn3)C/C(=C\c3ccc(OC)cc3)C2=O)cc1`, the GI50 in the test on OVCAR-5 ovarian is 21 µM; in the test with K-562 leukemia it was 2.65 µM; in the test with LOX IMVI melanoma, 3.98 µM; with ACHN renal it was 12.9 µM; in the test on CCRF-CEM leukemia, 2.39 µM; in the test on NCI/ADR-RES ovarian, 3.15 µM. Moreover, the GI50 is 21 µM in the test on T-47D breast, 15.7 µM in the test on SNB-19 CNS and 1.69 µM in the test on SR leukemia. In addition, the TGI came to 44.2 µM with OVCAR-5 ovarian; 11.7 µM with K-562 leukemia; 18.5 µM with LOX IMVI melanoma; 25.6 µM with ACHN renal; 7.01 µM with CCRF-CEM leukemia; 14.5 µM in the test on NCI/ADR-RES ovarian. Besides, the TGI in the test on T-47D breast was 51.1 µM; in the test with SNB-19 CNS, 36.1 µM; in the test on SR leukemia, 7.47 µM.

`CC(C)(O)C1CC(=O)C(C)(C2C(O)CC3(C)C4CC=C5C(CCC(O)C5(C)C)C4(C)C(=O)CC23C)O1` (centres undefined): the TGI in the test on OVCAR-5 ovarian, with K-562 leukemia, in the test on LOX IMVI melanoma, in the test on CAKI-1 renal, in the test on ACHN renal and in the test on T-47D breast was > 100 µM each time. Also, the TGI with SNB-19 CNS was > 100 µM.

Turning to `Cc1cccc(NC(=O)c2sc3nc4c(cc3c2N)CCC4)c1C`, the GI50 is 0.531 µM with OVCAR-5 ovarian; 0.643 µM in the test on LOX IMVI melanoma; 0.332 µM with CAKI-1 renal; 0.951 µM with ACHN renal; 0.321 µM in the test with CCRF-CEM leukemia; 0.279 µM with NCI/ADR-RES ovarian. The GI50 in the test with T-47D breast was 0.351 µM; in the test with SNB-19 CNS, 0.532 µM; in the test with SR leukemia it was 0.191 µM. For the same compound, the TGI with OVCAR-5 ovarian is 62.6 µM; in the test on LOX IMVI melanoma, > 100 µM; in the test with CAKI-1 renal it was 56.7 µM; in the test with ACHN renal it was 36.7 µM; in the test with CCRF-CEM leukemia, 35.8 µM; in the test with NCI/ADR-RES ovarian, 10.3 µM. In addition, the TGI with T-47D breast came out at 34.7 µM; in the test with SNB-19 CNS, 29.1 µM; in the test on SR leukemia, 10.2 µM.

For `O=C1c2cccc3cc4ccccc4c(c23)C(=O)N1CCCNCCNCCCN1C(=O)c2cccc3cc4ccccc4c(c23)C1=O`, the TGI with OVCAR-5 ovarian amounted to 1.98 µM; in the test on K-562 leukemia, 0.337 µM; in the test with CAKI-1 renal, 1.52 µM; with ACHN renal, 1.6 µM; in the test on T-47D breast it was 2.54 µM; in the test on SNB-19 CNS it was 2.23 µM. Also, the TGI with SR leukemia was found to be 1.51 µM.
